Ends that are not written are not given here.
Columns and labels:
mice [1] = assay: Stress-induced hyperthermia (SIH) assay; format: in vivo; details: 60 minutes before the assay, FIG. 1
Description: (§1) Animal behavior assays were performed to test for anxiolytic and antipsychotic effects of FN-38 (SEQ ID NO:5) administration. […] These specific behavioral tests are known to be sensitive to anxiolytic or antipsychotic drugs. For these assays, FN-38 was administered to mice at doses ranging from 0.1 to 10 mg/kg, intraperitoneally, and their performance in the assay was assessed.
Body temperature and emotionality are correlated in humans and stress commonly induces an increase in body temperature (hyperthermic response) in rodents. The thermic response to stress is commonly used as an indication of enhanced emotionality or anxiety in rodents and stress-induced hyperthermia (SIH) in mice is considered to have predictive validity for certain human anxiety/stress disorders. The SIH assay assesses the effect of anxiolytics or test agents on SIH and measures the intrinsic effects of these drugs on core body temperature of the animal. See, for example, Zethof et al., 1994, Physiol. Behav. 55:109-115. Anxiolytics blunt the increase in body temperature, or hyperthermic response, following stress exposure. Buspirone is a partial 5-HT1A agonist and a known anxiolytic agent. […] The stress from the first measurement induces hyperthermia which was measured by the second temperature measurement. […]

mice [2] = assay: Prepulse inhibition (PPI) test; format: in vivo; details: 78 and 82 dB prepulse, FIG. 4
Description: as §1
The prepulse inhibition (PPI) test measures the reflex response to externally applied auditory stimulation (acoustic startle response) and is related to the deficiency in sensory-motor gating capacity seen in schizophrenia. The acoustic startle reflex is a very basic response to strong exteroceptive stimuli and is widely used to assess sensorimotor reactivity in animals and humans. A weak auditory stimulus (prepulse, 74-82 dB) given prior to the strong acoustic stimulus (120 dB) blunts the startle response. This blunting of the startle response is referred to as prepulse inhibition. See, for example, Conti et al., 2005, Behavioral Neuroscience 119:1052-1060. […]
Mice were injected with the test agent (FN-38 (SEQ ID NO:5) at 0.1, 1.0 or 10 mg/kg, or vehicle (water)) […] to the test or with haloperidol at 1 mg/kg or vehicle (10% DMSO) 30 minutes prior to the test. […] The amount of the animal's “reaction” to the strong stimulus was recorded. […]

mice [3] = assay: Phencyclidine (PCP)-induced locomotion test; format: in vivo; details: FN-38 10 mg/kg, 15-30 minutes prior to 5 mg/kg PCP; activity recorded for 60 minutes; FIG. 3
Description: as §1
The PCP-induced locomotion test is used with open field activity chambers and measures locomotion, rearing, and stereotypic activity under amphetamine/PCP-induced conditions. The test has predictive validity for some antipsychotic drugs that normalize the hyperactivity and stereotypic behavior seen with amphetamine and PCP. See, for example, Williams et al., 2006, Prog. Neuropsychopharmacol. Biol. Psychiatry, 30:239-243. Mice were injected with the test agent (FN-38 (SEQ ID NO:5) at 0.1, 1.0 or 10 mg/kg, or vehicle (water)) 15-30 minutes prior injection with 5 mg/kg PCP. The animals were then placed in the center of an open field and activity was recorded for 60 minutes.

mice [4] = assay: Marble burying; format: in vivo; details: FN-38 10 mg/kg intraperitoneally, 15-30 minutes prior to the test; statistically significant; FIG. 2
Description: as §1
Marble burying is used as a model for both anxiety and obsessive-compulsive disorder. See, for example, Chaki et al., 2003, J. Pharmacol. Exp. Ther. 304:818-826. Anxiolytics suppress marble burying activity. Benzodiazepine chlordiazepoxide (CDP) is a known anxiolytic agent. Mice were injected with the test agent (FN-38 (SEQ ID NO:5) at 0.1, 1.0 or 10 mg/kg, 15 mg/kg CDP, or vehicle (water)) 15-30 minutes prior to the test. Mice were then placed individually in clean cages containing 5-cm of hard wood bedding and 20 marbles spaced evenly in rows of five. The number of marbles buried in 30 minutes was recorded. Results of this assay are shown in FIG. 2 where * is P<0.05 vs. vehicle control. […] These reductions in marble burying were statistically significant.

rats = details: central administration to rats; cited from earlier work

O=C1CC2(CCCC2)CC(=O)N1CCCCN1CCN(c2ncccn2)CC1 [buspirone, reference compound]
stress-induced hyperthermia (Delta Temperature) (mice [1]; 15 mg/kg buspirone, positive control): blunted the SIH response

O=C(CCCN1CCC(O)(c2ccc(Cl)cc2)CC1)c1ccc(F)cc1 [halperidol, haloperidol, reference compound]
percent of prepulse inhibition (mice [2]; haloperidol at 1 mg/kg, 30 minutes prior to the test, positive control): increased the percent of prepulse inhibition

FLFHYSKTQKLGKSNVVEELQSPFASQSRGYFLFRPRN (FLFHYSKTQKLGKSNVVEELQSPFASQSRGYFLFRPRN-NH2; listed as Homo sapiens) [FN-38]
PCP-induced hyper-locomotion (total distance traveled: total, central, and peripheral) (mice [3]): significantly reduced this hyper-locomotion response | number of marbles buried in 30 minutes (mice [4]): reduced the number of marbles buried | percent of prepulse inhibition (mice [2]; FN-38 10 mg/kg, 120 dB stimulus): increased the percent of prepulse inhibition | stress-induced hyperthermia (Delta Temperature) (mice [1]; FN-38 10 mg/kg intraperitoneally, P<0.05 vs. vehicle control): blunted the SIH response

neuromedin U (YKVNEYQGPVAPSGGFFLFRPRN-NH2; UniProt P12760 144-166, looked up) [NMU, neuromedin U, centrally administered to rats in cited literature]
food intake (rats): inhibited food intake
